Patent publication US12275729B2 (Merck Sharp & Dohme LLC, priority 2017, dated 2025)

Legend:
[1] = target: T1, IDO1 (Homo sapiens, UniProt P14902); assay: IDO1 Cellular Assay in HeLa Cells Stimulated with IFNγ; assay type: cell-based; conditions: read-out: Hela IC50
[2] = target: T1, IDO1; assay: IDO1 Human Whole Blood Assay; assay type: cell-based; design: Human whole blood was drawn in sodium heparin coated tubes from healthy internal donors; from tissue; host or cells: human whole blood from healthy donors, stimulated with LPS and IFNγ; conditions: LPS and IFNγ stimulated
Procedure: IDO1 Human Whole Blood Assay
Compounds to be tested were serially diluted in ten 3-fold steps in DMSO starting from 10 mM. […] LPS and IFNγ was prepared in RPMI to a 10× of final conc. (1000 ng/mL), final concentration is 100 ng/mL.
Human whole blood was drawn in sodium heparin coated tubes from healthy internal donors. 240 μL of blood was transferred to each of the wells of a v-bottom 96 well plate. 30 μL of compound was transferred from intermediate dilution plate, and incubated for 15 min. 30 μL from stimulants was then transferred to blood and mixed thoroughly.
On day 2 isotope labeled standard of kynurenine and tryptophan was made in water at 1Ox concentration and 30 μL was added to the blood at […] final concentration. The assay plates were centrifuged at 300×G for 10 min with no brake to separate plasma from red blood cells. 60 μL of plasma samples was removed without disturbing red blood cells. Plasma was diluted with RPMI in 1:1 ratio and proteins were precipitated out with two volume of Acetonitrile. The plates were centrifuged at 4000×G for 60 min. 20 μL of supernatant was carefully transferred to a 384 well plate contain 40 μL of 0.1% formic acid in water and analyzed by LC/MS/MS.
LC/MS/MS analyses were performed using Thermo Fisher's LX4-TSQ Quantum Ultra system. This system consists of four Agilent binary high-performance liquid chromatography (HPLC) pumps and a TSQ Quantum Ultra triple quadrupole MS/MS instrument. For each sample, 5 μL were injected onto an Atlantis T3 column (2.1 mm×150 mm, […] particle size) from Waters. The mobile phase gradient pumped at 0.8 mL/min was used to elute the analytes from the column at 25° C. […] Mobile phase A consisted of 0.1% formic acid in water. Mobile phase B consisted of 0.1% of formic acid in acetonitrile. Data was acquired in positive mode using a HESI interface. The operational parameters for the TSQ Quantum Ultra instrument were a spray voltage of 4000 V, capillary temperature of 380° C., vaporizer temperature 400° C., shealth gas 60 arbitrary units, Aux gas 20 arbitrary units, tube lens 85 and collision gas 1.2 mTorr. […] The peak area was integrated by Xcalibur Quan software. The ratios between the kynurenine generated in the reaction and 2D6-Kynurenine spiked-in internal standard were used to generate percentage inhibition and IC50 values.

T1 sequence (P14902 whole entry): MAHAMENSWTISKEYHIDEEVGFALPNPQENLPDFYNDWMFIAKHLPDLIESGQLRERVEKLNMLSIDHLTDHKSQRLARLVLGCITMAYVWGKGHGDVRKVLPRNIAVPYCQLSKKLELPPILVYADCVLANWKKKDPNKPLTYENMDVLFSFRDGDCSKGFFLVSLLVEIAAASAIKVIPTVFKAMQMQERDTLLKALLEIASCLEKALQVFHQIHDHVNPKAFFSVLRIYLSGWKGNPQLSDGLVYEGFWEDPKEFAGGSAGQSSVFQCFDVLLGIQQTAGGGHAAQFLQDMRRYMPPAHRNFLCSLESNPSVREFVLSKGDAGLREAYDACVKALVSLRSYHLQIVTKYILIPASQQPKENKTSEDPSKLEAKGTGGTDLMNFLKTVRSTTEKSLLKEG

SMILES	IC50 ([1]; about 48 hours) [nM]	IC50 [2] [nM]	IC50 [1] [nM]
C[C@@H](C(=O)Nc1ccc(F)cc1)c1ccc2c(c1)CCCN2C(=O)c1cccc(Cl)c1 (single isomer, unassigned) [Example 53]	2.2	45	
CC(C(=O)Nc1ccc(Cl)cc1)c1ccc2c(c1)CCCN2C(=O)c1cccc(Cl)c1 (stereo not shown) [Example 51, 2-[1-(3-chlorobenzene-1-carbonyl)-1,2,3,4-tetrahydroquinolin-6-yl]-N-(4-chlorophenyl)propanamide]	2	96	
O=C(c1cccc(Cl)c1)N1CCc2nc(C3(C(=O)Nc4ccc(F)cc4)CCC3)ccc21 [Example 275, 1-[1-(3-chlorobenzene-1-carbonyl)-2,3-dihydro-1H-pyrrolo[3,2-b]pyridin-5-yl]-N-(4-fluorophenyl)cyclobutane-1-carboxamide]	3	93	
CC(NC(=O)c1ccc(Cl)cc1)c1ccc2c(n1)CCCN2c1nc(C(F)(F)F)nc2ccccc12 (stereo not shown) [Example 358, 2-(1-(4-chlorobenzamido)ethyl)-5-(2-(trifluoromethyl)quinazolin-4-yl)-5,6,7,8-tetrahydro-1,5-naphthyridin-1-ium 2,2,2-trifluoroacetate]		1000	4.24
CC(C)CC(=O)N1CCCc2cc([C@@H](C)NC(=O)c3ccc(Cl)cc3)ccc21 (racemic) [Example 28, 4-chloro-N-{(1R)-1-[1-(3-methyl-butanoyl)-1,2,3,4-tetrahydroquinolin-6-yl]ethyl}benzamide]	3.8	33	
Cc1nc(C(=O)N2CCCc3cc(C4(C(=O)Nc5ccc(F)cc5)CCC4)ccc32)no1 [Example 100, N-(4-fluorophenyl)-1-[1-(5-methyl-1,2,4-oxadiazole-3-carbonyl)-1,2,3,4-tetrahydroquinolin-6-yl]cyclobutane-1-carboxamide]	1.2	90	
O=C(C1COC1)N1CCCc2cc(C3(C(=O)Nc4ccc(F)cc4)CCC3)ccc21 [Example 115, N-(4-fluorophenyl)-1-[1-(oxetane-3-carbonyl)-1,2,3,4-tetrahydroquinolin-6-yl]cyclobutane-1-carboxamide]	20	480	
CC(NC(=O)c1ccc(F)cc1)c1ccc2c(n1)CCCN2C(=O)c1cc(Cl)cc(Cl)c1 (stereo not shown) [Example 149, N-{1-[5-(3,5-dichlorobenzene-1-carbonyl)-5,6,7,8-tetrahydro-1,5-naphthyridin-2-yl]ethyl}-4-fluorobenzamide]	3.2	33	
O=C(C1CC1)N1CCCc2cc(C3(C(=O)Nc4ccc(F)cn4)CCC3)ccc21 [Example 96, 1-(1-(cyclopropanecarbonyl)-1,2,3,4-tetrahydroquinolin-6-yl)-N-(5-fluoropyridin-2-yl)cyclobutane-1-carboxamide]	6.2	223	
CC(C(=O)Nc1ccc(F)cc1)c1ccc2c(n1)CCCN2c1ccnc(C(F)(F)F)n1 (stereo not shown) [Example 364, N-(4-fluorophenyl)-2-(5-(2-(trifluoromethyl)pyrimidin-4-yl)-5,6,7,8-tetrahydro-1,5-naphthyridin-2-yl)propanamide]		198	4.99
CC(NC(=O)c1ccc(F)cc1)c1ccc2c(n1)CCCN2Cc1cccc(Cl)c1 (stereo not shown) [Example 229, N-(1-{5-[(3-chlorophenyl)methyl]-5,6,7,8-tetrahydro-1,5-naphthyridin-2-yl}ethyl)-4-fluorobenzamide]	3.5	245	
CC(NC(=O)c1ccc(F)cc1)c1ccc2c(n1)CCCN2c1ccn2nccc2n1 (stereo not shown) [Example 368, 4-fluoro-N-(1-(5-(pyrazolo[1,5-a]pyrimidin-5-yl)-5,6,7,8-tetrahydro-1,5-naphthyridin-2-yl)ethyl)benzamide]		16	18
CC(C)(C(=O)Nc1ccc(Cl)cc1)c1ccc2c(c1)CCCN2C(=O)c1cccc(Cl)c1 [Example 187, 2-[1-(3-chlorobenzene-1-carbonyl)-1,2,3,4-tetrahydroquinolin-6-yl]-N-(4-chlorophenyl)-2-methylpropanamide]	4.5	2040	
C[C@H](NC(=O)c1ccc(Cl)cc1)c1ccc2c(n1)OCCN2C(=O)c1cccc(Cl)c1 (single isomer, unassigned) [Example 254, 4-chloro-N-(1-(1-(3-chlorobenzoyl)-2,3-dihydro-1H-pyrido[2,3-b][1,4]oxazin-6-yl)ethyl)benzamide]	3.7	263	
CC(C(=O)Nc1ccc(F)cc1)c1ccc2c(c1)CCCN2Cc1cccc(Cl)c1 (single isomer, unassigned) [Example 225, 2-{1-[(3-chlorophenyl)methyl]-1,2,3,4-tetrahydroquinolin-6-yl}-N-(4-fluorophenyl)propanamide]	4.7	149	
Cc1nccc(N2CCCc3nc(C4(NC(=O)c5ccc(F)c(Br)c5)CC4)ccc32)n1 [Example 304, 3-bromo-4-fluoro-N-(1-(5-(2-methylpyrimidin-4-yl)-5,6,7,8-tetrahydro-1,5-naphthyridin-2-yl)cyclopropyl)benzamide]	2.79	81	
COC(=O)N1CCCc2nc(C(C)NC(=O)c3ccc(Cl)cc3)ccc21 (stereo not shown) [Example 213, methyl 6-{1-[(4-chlorobenzene-1-carbonyl)amino]ethyl}-3,4-dihydro-1,5-naphthyridine-1(2H)-carboxylate]	6.3	393	
Cc1nccc(N2CCCc3nc(C4(NC(=O)c5ccc(Cl)nc5)CC4)ccc32)n1 [Example 300, 6-chloro-N-(1-(5-(2-methylpyrimidin-4-yl)-5,6,7,8-tetrahydro-1,5-naphthyridin-2-yl)cyclopropyl)nicotinamide]	1.9	63	

Further molecules by falling IC50 [2], results first:

IC50 ([1]; about 48 hours) [nM]	IC50 [2] [nM]	IC50 [1] [nM]	SMILES
2.7	2580		Cc1cccc(N2CCCc3nc(C4(NC(=O)c5ccc(F)cc5)CC4)ccc32)n1 [Example 245, 4-fluoro-N-(1-(5-(6-methylpyridin-2-yl)-5,6,7,8-tetrahydro-1,5-naphthyridin-2-yl)cyclopropyl)benzamide]
7.9	325		O=C(C1CC1)N1CCc2nc(C3(C(=O)Nc4ccc(F)cc4)CCC3)ccc21 [Example 268, 1-[1-(cyclopropanecarbonyl)-2,3-dihydro-1H-pyrrolo[3,2-b]pyridin-5-yl]-N-(4-fluorophenyl)cyclobutane-1-carboxamide]
	140	3.82	CC(C(=O)Nc1ccc(F)cc1)c1ccc2c(n1)CCCN2c1ccnc(C2CC2)n1 (stereo not shown) [Example 366, 2-(5-(2-cyclopropylpyrimidin-4-yl)-5,6,7,8-tetrahydro-1,5-naphthyridin-2-yl)-N-(4-fluorophenyl)propanamide]
4.8	99		C[C@H](C(=O)Nc1ccc(F)cc1)c1ccc2c(c1)CCCN2C(=O)C1CCOCC1 [Example 81, (2S)-N-(4-fluorophenyl)-2-[1-(oxane-4-carbonyl)-1,2,3,4-tetrahydroquinolin-6-yl]propanamide]
2.7	34		CC(C(=O)Nc1ccc(F)cc1)c1ccc2c(n1)CCCN2C(=O)C1CCOCC1 (stereo not shown) [Example 165, N-(4-fluorophenyl)-2-[5-(oxane-4-carbonyl)-5,6,7,8-tetrahydro-1,5-naphthyridin-2-yl]propanamide]
2	32		Cc1nccc(N2CCCc3nc(C(C)NC(=O)c4ccc(Cl)cc4)ccc32)n1 (stereo not shown) [Example 250, 4-chloro-N-(1-(5-(2-methylpyrimidin-4-yl)-5,6,7,8-tetrahydro-1,5-naphthyridin-2-yl)ethyl)benzamide]
12	29		CC(C(=O)Nc1ccc(F)cc1)c1ccc2c(n1)CCCN2C(=O)[C@H]1CCCO1 (stereo partly drawn) [Example 137, N-(4-fluorophenyl)-2-(5-((R)-tetrahydrofuran-2-carbonyl)-5,6,7,8-tetrahydro-1,5-naphthyridin-2-yl)propanamide]
1.7	11		O=C(C1CC1)N1CCCc2cc(C3(C(=O)Nc4ccc(F)cc4)CCC3)ccc21 [Example 97, 1-[1-(cyclopropanecarbonyl)-1,2,3,4-tetrahydroquinolin-6-yl]-N-(4-fluorophenyl)cyclobutane-1-carboxamide]
